Experimental data from PMC8835475, “Salviolone from Salvia miltiorrhiza Roots Impairs Cell Cycle Progression, Colony Formation, and Metalloproteinase-2 Activity in A375 Melanoma Cells: Involvement of P21(Cip1/Waf1) Expression and STAT3 Phosphorylation” (International Journal of Molecular Sciences, 2022).

System: ERK1/2
Experiment: Immunoblot of total ERK1/2 in A375 cells
Type: cell-based, human
Settings: A375, 20 µM, 72 h
Procedure: A375 cells were seeded in 6 cm Petri dishes (190 300 cell/dish) and treated with different compounds at 10 or 20 μM. After 48- or 72-h treatment, the cells were scraped using warm 1× sample buffer (2% SDS, 10% glycerol, 50 mM Tris-HCl, 1.75% β-mercaptoethanol, and bromophenol blue) and boiled at 99 °C for 10 min. Total protein extracts were kept at −80 °C until use.
Protein extracts were analyzed with a 7.5 or 10% polyacrylamide SDS-PAGE and transferred to a polyvinylidene difluoride membrane (PVDF, Thermo Fisher Scientific, Waltham, MA, USA). The membranes were blocked at RT for 1 h with TBST buffer (10 mM Tris-HCl pH 7.5, 100 mM NaCl, 0.1% Tween20) containing 4% Milk (Formulat). […] Immuno-detection was carried out with an ECL kit (GE-Healthcare, Little Chalfont, UK), and the chemiluminescence signals were detected with ChemiDoc (Bio-Rad, Hercules, CA, USA).

SMILES: Cc1cc2ccc3c(c2cc(O)c1=O)CCCC3(C)C [Compound 7, salviolone]
- total protein amount of ERK1/2: increased
